Results on two molecules are retold here after patent publication US20230190704A1, “DRUG DELIVERY SYSTEM BASED ON CALCIUM PHOSPHATE NANOPARTICLES FUNCTIONALIZED WITH BIOACTIVE COMPOUNDS FROM EUPHORBIA EXTRACT AND THE USES THEREOF” (CELLBITEC, S.L., priority 2020, published 2023).

Converted amounts (≈) assume the structure as drawn.

Assay [1] deals with 15 in vitro models with tumor cells. To be noted: 15 in vitro tumor cell models; read-out: inhibitory dose 50 (IC50); cited from earlier work.
The subject of assay [2] is T84 human colon adenocarcinoma cell line. Put plainly: Antiproliferative SRB assay of nanoparticles and isolated compounds in T84 cells. As to conditions: T84, isolated compound, 72 h. The assay is classed as cell-based. On the procedure:
The human colon adenocarcinoma cell line T84was purchased from the American Type Culture Collection (Rockville, MD, USA). The non-tumor colon cell line CCD18 (human colon epithelial cell line) was used as control. All cell lines were grown in Dulbecco’s Modified Eagle’s Medium (DMEM) supplemented with 10% heat-inactivated fetal bovine serum (FBS) and ATB (antibiotic, streptomycin + amphotericin B) at 1% and maintained in an incubator at 37° C. and 5% CO2 humidified atmosphere.
Cells were seeded in 48-well plates with DMEM (Dulbecco’s modified Eagles Medium) (300 ul) at a density of 4 x 10^3 cells/well in CCD18 and 5 x 10^3 cells/well in T84. After 24 hours, cell cultures were exposed 72 h to increasing concentrations of the nanoparticles dissolved in DMEM. In addition, bioactive components of the extract, Esculetin (range from 0.1 µg/ml to 5 µg/ml) and Euphorbetin (range from 0.02 µg/ml to 0.7 µg/ml), were combined at different concentration in order to determine their antitumor activity and to compare with nanoparticle activity and ethanolic extract activity. After incubation time, cells were fixed with trichloroacetic acid (TCA) at 10% for 20 minutes at 4° C. […] Finally, the optical density (OD) at 492 nm was measured in a spectrophotometer. Cell survival (%) was calculated according to the following equation: […]
For orientation: The SRB assay estimates cell density from bound dye.

As a reminder, the IC50 is the midpoint of a concentration-inhibition curve. Take `CC(C)=CCC[C@@H](C)[C@@H]1CC[C@]2(C)C3=C(CC[C@@]12C)[C@@]1(C)CC[C@H](O)C(C)(C)[C@@H]1CC3` [Euphol]: the IC50 in assay [1] was 2 to 30 µM. `O=c1ccc2cc(O)c(O)cc2o1` [Esculetin, esculetin] came in with an IC50 in assay [2] of 0.27 µg/mL (≈ 1.52 µM).
